Experimental data published in ChEMBL document CHEMBL3425436, “Assessing the oral bioavailability of difluorosialic acid prodrugs, potent viral neuraminidase inhibitors, using a snapshot PK screening assay” (Bioorg Med Chem Lett, 2015).

Legend:
[1] = system: Mus musculus; experiment: AUC in CD1 mouse at 30 mg/kg, po; assay type: ADME, organism-based, Plasma; design: dose 30 mg/kg, route oral; conditions: in vivo
[2] = Total plasma concentration in CD1 mouse at 30 mg/kg, po measured at 60 mins by reversed-phase UPLC/MS analysis; assay type: ADME, organism-based; design: dose 30 mg/kg, route oral
[3] = Oral bioavailability in CD1 mouse at 30 mg/kg; assay type: ADME, organism-based; conditions: in vivo
[4] = Cmax in CD1 mouse at 30 mg/kg, po; assay type: ADME, organism-based; design: dose 30 mg/kg, route oral; conditions: in vivo
[5] = Total plasma concentration in CD1 mouse at 30 mg/kg, po measured at 20 mins by reversed-phase UPLC/MS analysis; assay type: ADME, organism-based; design: dose 30 mg/kg, route oral
[6] = Half life in CD1 mouse at 30 mg/kg, po; assay type: ADME, organism-based; design: dose 30 mg/kg, route oral; conditions: in vivo
[7] = Tmax in CD1 mouse at 30 mg/kg, po; assay type: ADME, organism-based; design: dose 30 mg/kg, route oral; conditions: in vivo
[8] = system: Mus musculus; experiment: Prodrug conversion in CD1 mouse assessed as formation of (2R,3R,4R,5R,6R)-5-acetamido-4-amino-2,3-difluoro-6-((1R,2R)-1,2,3-trihydroxypropyl)tetrahydro-2H-pyran-2-carboxylic acid at 30 mg/kg, po; assay type: ADME, organism-based; design: dose 30 mg/kg, route oral; conditions: in vivo
[9] = system: Mus musculus; experiment: Total plasma concentration in CD1 mouse assessed as (2R,3R,4R,5R,6R)-5-acetamido-4-amino-2,3-difluoro-6-((1R,2R)-1,2,3-trihydroxypropyl)tetrahydro-2H-pyran-2-carboxylic acid at 30 mg/kg, po measured at 60 mins by reversed-phase UPLC/MS analysis; assay type: ADME, organism-based; design: dose 30 mg/kg, route oral; conditions: in vivo, 1 h
[10] = system: Mus musculus; experiment: Total plasma concentration in CD1 mouse assessed as (2R,3R,4R,5R,6R)-5-acetamido-4-amino-2,3-difluoro-6-((1R,2R)-1,2,3-trihydroxypropyl)tetrahydro-2H-pyran-2-carboxylic acid at 30 mg/kg, po measured at 20 mins by reversed-phase UPLC/MS analysis; assay type: ADME, organism-based; design: dose 30 mg/kg, route oral; conditions: in vivo
[11] = Total plasma concentration in CD1 mouse at 50 mg/kg, po measured at 20 mins by reversed-phase UPLC/MS analysis; assay type: ADME, organism-based; design: dose 50 mg/kg, route oral
[12] = system: Mus musculus; experiment: AUC in CD1 mouse at 10 mg/kg, iv; assay type: ADME, organism-based, Plasma; design: dose 10 mg/kg, route intravenous; conditions: in vivo
[13] = Total plasma concentration in CD1 mouse at 50 mg/kg, po measured at 60 mins by reversed-phase UPLC/MS analysis; assay type: ADME, organism-based; design: dose 50 mg/kg, route oral

Compound | AUC [1] | concentration at 1 h [2] | bioavailability [3] | Cmax [4] | concentration at 20 min [5] | half-life [6] | Tmax [7] | Drug metabolism [8] | concentration [9] | concentration [10] | concentration at 20 min [11] | AUC [12] | concentration at 1 h [13]
CCOC(=O)C1=C[C@@H](OC(CC)CC)[C@H](NC(C)=O)[C@@H](N)C1 [OSELTAMIVIR] | 1706 µmol·min | 13.3 µM | 64.5% | 13.5 µM | 8.41 µM | 74 min | 30 min |  |  |  |  |  | 
COC(=O)[C@]1(F)O[C@@H]([C@H](O)[C@H]2COC(C)(C)O2)[C@H](NC(C)=O)[C@@H](N)[C@H]1F |  |  |  |  |  |  |  | metabolite_detected | 4.86 µM | 2.57 µM |  |  | 
CC(=O)N[C@@H]1[C@@H](N)[C@@H](F)[C@](F)(C(=O)O)O[C@H]1[C@H](O)[C@H](O)CO | 320 µmol·min | 4.93 µM | 3.1% | 2.8 µM | 2.7 µM | 196 min | 20 min |  |  |  | 4.5 µM | 3394 µmol·min | 8.21 µM
